Laboratory results published in patent publication US12582625B2, “Methods for treating neuroblastoma” (priority 2015, dated 2026).
“And” between values parts separate entries of the source, which are not always exact repeats. Equal entries are not always repeated.

Key:
urinary polyamines = assay: NMTRC 002: urinary polyamine levels during DFMO therapy; format: in vivo, human
Protocol: Urinary Polyamine Levels. Patients were consented for urine analysis in NMTRC 002. […] Polyamines with at least one free primary amine were quantified using reverse-phase high-performance liquid chromatography (HPLC) as previously described (Thompson et al., 2010). Urinary N^1,N^12-diacetylspermine (N^1,N^12-Ac2Spm or DAS) was determined using the auto DAS reagent kit (Alfresa Pharma Co., Osaka, Japan), according to the manufacturer's instructions. The assay involves the specific binding between a bovine serum albumin-acetylspermine conjugate, as a DAS mimic, and colloidal gold antibody complexes, and has been previously described (Kawakita et al., 2011).

NB cells = conditions: DFMO in the 50-150 μM range; cited from earlier work
[1] = toxicities related to DFMO alone
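Wherever ALT elevation, maximum Grade 2, patients (%) is given: Open-label multicenter phase I 3+3 dose escalation in patients aged 0-21 years with relapsed or refractory neuroblastoma, dosed twice daily.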
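Wherever ALT elevation, maximum Grade 3, patients (%) is given: Open-label multicenter phase I 3+3 dose escalation in patients aged 0-21 years with relapsed or refractory neuroblastoma, dosed twice daily.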
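Wherever dose-limiting toxicities (DLTs) or drug related serious adverse events (SAEs) is given: Open-label multicenter phase I 3+3 dose escalation in patients aged 0-21 years with relapsed or refractory neuroblastoma, dosed twice daily.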
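Wherever tolerability in pediatric patients is given: Open-label multicenter phase I 3+3 dose escalation in patients aged 0-21 years with relapsed or refractory neuroblastoma, dosed twice daily.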

## NCCCC(N)(C(=O)O)C(F)F (stereo not shown) [DFMO, 2,5-diamino-2-(difluoromethyl) pentanoic acid]
Urinary polyamines; DFMO dose 500 mg/m^2 BID
  DAS increase from Cycle 1 Day 1, individual patients: Yes and No
  UPA Cycle 1 Day 8 (sum of putrescine, N1AcSpd, N8AcSpd and DAS), individual patients: 4.20 and 15.70 and 11.69
Urinary polyamines; DFMO dose 750 mg/m^2 BID
  DAS increase from Cycle 1 Day 1, individual patients: No (2×) and Yes (3×)
  UPA Cycle 1 Day 8 (sum of putrescine, N1AcSpd, N8AcSpd and DAS), individual patients: 7.80 and 22.08 and 1.94 and 13.46
Urinary polyamines; DFMO dose 1000 mg/m^2 BID
  DAS increase from Cycle 1 Day 1, individual patients: No and Yes (2×)
  UPA Cycle 1 Day 8 (sum of putrescine, N1AcSpd, N8AcSpd and DAS), individual patients: 8.71 and 3.89 and 3.28
Urinary polyamines; DFMO dose 1500 mg/m^2 BID
  DAS increase from Cycle 1 Day 1, individual patients: Yes (4×) and No (3×)
  UPA Cycle 1 Day 8 (sum of putrescine, N1AcSpd, N8AcSpd and DAS), individual patients: 5.61 and 3.98 and 6.99 and 3.77 and 8.81 and 7.38 and 5.93
Urinary polyamines; ODC SNP rs2302615 genotype Any A
  UPA (C1D1 − C8D1)/C1D1 × 100: 0.66 ± 92.00
Urinary polyamines; ODC SNP rs2302615 genotype GG
  UPA (C1D1 − C8D1)/C1D1 × 100: 23.26 ± 35.59
Urinary polyamines; ODC SNP rs2302616 genotype Any T
  UPA (C1D1 − C8D1)/C1D1 × 100: 48.32 ± 18.24
Urinary polyamines; ODC SNP rs2302616 genotype GG
  UPA (C1D1 − C8D1)/C1D1 × 100: −24.46 ± 83.67
Urinary polyamines; after one week of DFMO therapy, GG genotype at rs2302616
  increase of urinary polyamine levels from baseline: ~25%
Urinary polyamines; after one week of DFMO therapy, minor T allele at rs2302616
  decrease of urinary polyamine levels from baseline: ~50%
Urinary polyamines; cycle 1, N=16 patients with complete data, P=1.000
  change in urinary N^1AcSpd between Day 8 and 15: No change
Urinary polyamines; disease progression within 100 days of therapy start
  patients with increased urinary DAS: 9/10
Urinary polyamines; first two weeks of treatment, population as a whole
  urinary N^1AcSpd contents: reduced
Urinary polyamines; patients with disease progression after 100 days from start of therapy
  average decrease of urinary polyamines from baseline: 1.57±3.37 μmol/g Creatinine
Urinary polyamines; patients with disease progression less than 100 days after start of therapy
  average increase of total urinary polyamines (putrescine+N^1AcSpd+N^8AcSpd+DAS) from baseline: 6.56±16.29 μmol/g Creatinine
Urinary polyamines; progression free up to 100 days
  patients with increased urinary DAS: 1/7
NB cells
  killing of NB cells: do not kill NB cells
500-1500 mg/m^2 BID, all dose levels
  dose-limiting toxicities (DLTs) or drug related serious adverse events (SAEs): No dose-limiting toxicities (DLTs) or drug related serious adverse events (SAEs) were observed
500-1500 mg/m^2 twice per day by mouth
  tolerability in pediatric patients: well tolerated
Cycle 1 (N = 21)
  ALT elevation, maximum Grade 2, patients (%): 1 (5%)
  ALT elevation, maximum Grade 3, patients (%): 0
  ALT elevation, maximum Grade 4, patients (%): 0
  ALT elevation, maximum Grade 5, patients (%): 0
  AST elevation, maximum Grade 2, patients (%): 0
  AST elevation, maximum Grade 3, patients (%): 1 (5%)
  AST elevation, maximum Grade 4, patients (%): 0
  AST elevation, maximum Grade 5, patients (%): 0
  Anemia, maximum Grade 2, patients (%): 2 (10%)
  Anemia, maximum Grade 3, patients (%): 0
  Anemia, maximum Grade 4, patients (%): 1 (5%)
  Anemia, maximum Grade 5, patients (%): 0
  Anorexia, maximum Grade 2, patients (%): 0
  Anorexia, maximum Grade 3, patients (%): 1 (5%)
  Anorexia, maximum Grade 4, patients (%): 0
  Anorexia, maximum Grade 5, patients (%): 0
  Conjunctivitis, maximum Grade 2, patients (%): 1 (5%)
  Conjunctivitis, maximum Grade 3, patients (%): 0
  Conjunctivitis, maximum Grade 4, patients (%): 0
  Conjunctivitis, maximum Grade 5, patients (%): 0
  Constipation, maximum Grade 2, patients (%): 1 (5%)
  Constipation, maximum Grade 3, patients (%): 0
  Constipation, maximum Grade 4, patients (%): 0
  Constipation, maximum Grade 5, patients (%): 0
  Diarrhea, maximum Grade 2, patients (%): 1 (5%)
  Diarrhea, maximum Grade 3, patients (%): 0
  Diarrhea, maximum Grade 4, patients (%): 0
  Diarrhea, maximum Grade 5, patients (%): 0
  GGT elevation, maximum Grade 2, patients (%): 1 (5%)
  GGT elevation, maximum Grade 3, patients (%): 0
  GGT elevation, maximum Grade 4, patients (%): 0
  GGT elevation, maximum Grade 5, patients (%): 0
  Hypoalbumenia, maximum Grade 2, patients (%): 1 (5%)
  Hypoalbumenia, maximum Grade 3, patients (%): 0
  Hypoalbumenia, maximum Grade 4, patients (%): 0
  Hypoalbumenia, maximum Grade 5, patients (%): 0
  Hypophosphatemia, maximum Grade 2, patients (%): 1 (5%)
  Hypophosphatemia, maximum Grade 3, patients (%): 0
  Hypophosphatemia, maximum Grade 4, patients (%): 0
  Hypophosphatemia, maximum Grade 5, patients (%): 0
  Infection, sinus, maximum Grade 2, patients (%): 0
  Infection, sinus, maximum Grade 3, patients (%): 0
  Infection, sinus, maximum Grade 4, patients (%): 0
  Infection, sinus, maximum Grade 5, patients (%): 0
  Mouth pain, maximum Grade 2, patients (%): 0
  Mouth pain, maximum Grade 3, patients (%): 0
  Mouth pain, maximum Grade 4, patients (%): 0
  Mouth pain, maximum Grade 5, patients (%): 0
  Nausea, maximum Grade 2, patients (%): 0
  Nausea, maximum Grade 3, patients (%): 0
  Nausea, maximum Grade 4, patients (%): 0
  Nausea, maximum Grade 5, patients (%): 0
  Neuropathy, maximum Grade 2, patients (%): 0
  Neuropathy, maximum Grade 3, patients (%): 0
  Neuropathy, maximum Grade 4, patients (%): 0
  Neuropathy, maximum Grade 5, patients (%): 0
  Neutrophil count decrease, maximum Grade 2, patients (%): 1 (5%)
  Neutrophil count decrease, maximum Grade 3, patients (%): 1 (5%)
  Neutrophil count decrease, maximum Grade 4, patients (%): 0
  Neutrophil count decrease, maximum Grade 5, patients (%): 0
  Pain, maximum Grade 2, patients (%): 0
  Pain, maximum Grade 3, patients (%): 0
  Pain, maximum Grade 4, patients (%): 0
  Pain, maximum Grade 5, patients (%): 0
  Platelet count decrease, maximum Grade 2, patients (%): 1 (5%)
  Platelet count decrease, maximum Grade 3, patients (%): 1 (5%)
  Platelet count decrease, maximum Grade 4, patients (%): 0
  Platelet count decrease, maximum Grade 5, patients (%): 0
  Rash, maximum Grade 2, patients (%): 0
  Rash, maximum Grade 3, patients (%): 0
  Rash, maximum Grade 4, patients (%): 0
  Rash, maximum Grade 5, patients (%): 0
  Sleep disturbance, maximum Grade 2, patients (%): 1 (5%)
  Sleep disturbance, maximum Grade 3, patients (%): 0
  Sleep disturbance, maximum Grade 4, patients (%): 0
  Sleep disturbance, maximum Grade 5, patients (%): 0
  Urinary retention, maximum Grade 2, patients (%): 1 (5%)
  Urinary retention, maximum Grade 3, patients (%): 0
  Urinary retention, maximum Grade 4, patients (%): 0
  Urinary retention, maximum Grade 5, patients (%): 0
  Vomiting, maximum Grade 2, patients (%): 1 (5%)
  Vomiting, maximum Grade 3, patients (%): 0
  Vomiting, maximum Grade 4, patients (%): 0
  Vomiting, maximum Grade 5, patients (%): 0
  White blood cell decreased, maximum Grade 2, patients (%): 0
  White blood cell decreased, maximum Grade 3, patients (%): 0
  White blood cell decreased, maximum Grade 4, patients (%): 0
  White blood cell decreased, maximum Grade 5, patients (%): 0
[1]
  ALT increase, N of subjects: 1
  ANC decrease, N of subjects: 2
  AST increase, N of subjects: 1
  anemia, N of subjects: 3
  anorexia, N of subjects: 1
  constipation, N of subjects: 1
  decreased platelet count, N of subjects: 2
  diarrhea, N of subjects: 1
  hypoalbuminemia, N of subjects: 1
  hypophosphatemia, N of subjects: 1
  increased GGT, N of subjects: 1
  infection (conjunctivitis), N of subjects: 1
  sleep disturbance, N of subjects: 1
  urinary retention, N of subjects: 1
  vomiting, N of subjects: 1
Up to 1500 mg/m^2 BID
  maximum tolerated dose (MTD): not established
